Reference: patent US7795213B2 (POSCO, priority 2002, dated 2010)
Where no end group is shown, it is not given here.

Assays:
Aβ [1] = molecular target: T1, Aβ (Homo sapiens, UniProt P05067); experiment: Determination of Aβ binding region in VEGF, immobilized GST-fusion proteins; settings: GST-fusion proteins 200 nM immobilized; 200 nM Aβ
T1 construct: Aβ (Aβ) is the major component of senile plaques and is derived from the amyloid precursor protein by proteolytic cleavage
Protocol: The purified proteins were analyzed with 12% SDS-polyacrylmide gel electrophoresis. […] After blocking nonspecific binding sites with 3% BSA/PBS, 200 nM of Aβ was added to each well and allowed to bind to immobilized proteins. Unbound Aβ was removed and the bound Aβ was determined with rabbit anti-Aβ antibody followed by anti-rabbit antibody conjugated with horse radish peroxidase.

VEGF receptor, KDR-Fc = VEGF receptor, KDR-Fc (Homo sapiens, UniProt P35968); settings: VEGF 12 nM immobilized; 0.3 nM KDR-Fc
VEGF receptor, KDR-Fc, sequence (P35968 with tags, fused parts or gaps limits assumed): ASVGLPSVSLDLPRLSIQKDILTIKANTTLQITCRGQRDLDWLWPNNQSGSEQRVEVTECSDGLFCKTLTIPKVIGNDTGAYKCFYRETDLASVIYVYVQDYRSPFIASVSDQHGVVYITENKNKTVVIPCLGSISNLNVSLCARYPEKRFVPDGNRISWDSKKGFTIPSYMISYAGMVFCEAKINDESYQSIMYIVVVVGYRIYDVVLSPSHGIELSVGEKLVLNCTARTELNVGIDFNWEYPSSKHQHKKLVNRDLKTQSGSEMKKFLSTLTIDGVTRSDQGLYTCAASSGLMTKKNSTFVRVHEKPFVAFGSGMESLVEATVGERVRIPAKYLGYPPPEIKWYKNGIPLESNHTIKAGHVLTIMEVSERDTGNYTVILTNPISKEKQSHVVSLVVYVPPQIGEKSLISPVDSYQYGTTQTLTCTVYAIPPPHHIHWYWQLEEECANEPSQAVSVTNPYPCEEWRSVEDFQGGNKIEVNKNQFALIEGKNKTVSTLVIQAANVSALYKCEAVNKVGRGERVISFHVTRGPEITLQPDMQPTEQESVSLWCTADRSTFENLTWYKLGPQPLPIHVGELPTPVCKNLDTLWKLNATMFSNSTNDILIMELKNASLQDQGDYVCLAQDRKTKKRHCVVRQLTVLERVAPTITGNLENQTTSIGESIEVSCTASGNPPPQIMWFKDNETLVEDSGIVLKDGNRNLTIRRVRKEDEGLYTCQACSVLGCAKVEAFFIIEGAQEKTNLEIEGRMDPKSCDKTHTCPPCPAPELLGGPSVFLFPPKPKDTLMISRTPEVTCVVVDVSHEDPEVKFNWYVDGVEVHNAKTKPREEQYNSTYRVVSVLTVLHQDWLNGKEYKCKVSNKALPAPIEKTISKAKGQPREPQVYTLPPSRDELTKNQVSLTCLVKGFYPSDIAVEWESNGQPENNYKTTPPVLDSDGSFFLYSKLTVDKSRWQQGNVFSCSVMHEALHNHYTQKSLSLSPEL
Protocol: After removing unbound KDR-Fc, the bound KDR-Fc was determined by binding of mouse anti-Fc antibody followed by anti-mouse antibody conjugated with horse radish peroxidase.

[2] = molecular target: T2, Aβ-VEGF binding (VEGF, biotinylated Aβ1-42) (Homo sapiens, UniProt P15692); experiment: Aβ-VEGF binding in presence of triamterene; settings: 100 nM VEGF, 100 nM biotinylated Aβ1-42, 37° C., 24 hours
T2 sequence (P15692 27-191 isoform P15692-4 limits assumed): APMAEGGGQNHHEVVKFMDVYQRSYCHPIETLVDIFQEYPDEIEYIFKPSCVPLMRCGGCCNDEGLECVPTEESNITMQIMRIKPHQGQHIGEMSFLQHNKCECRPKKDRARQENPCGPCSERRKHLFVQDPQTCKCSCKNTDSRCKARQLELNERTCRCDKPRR
Protocol: The level of the formation of the Aβ-VEGF binding was measured and compared with that of control without triamterene.

Aβ1-42 = molecular target: T3, Aβ1-42 (Homo sapiens, UniProt P05067); experiment: Thioflavin T assay of Aβ aggregation; type: biochemical; settings: 24 hours
T3 construct: Aβ1-40, Aβ1-42, and Aβ40-1 (BACHEM, Bubendorf, Switzerland) were immobilized on a CM5 sensor chip; purchased BACHEM
Protocol: 10 μM of thioflavin T was added to the mixture and sufficiently mixed. Then, the fluorescence of the mixture was measured at Ex=444 nm and Em=485 nm, and then, compared with that of control of Aβ incubated alone, to determine the affection on aggregation of Aβ.
50 μM Aβ was incubated at 37° C. for 24 hours together with triamterene of 0 μM, 4 μM, 20 μM or 100 μM, respectively, to generate aggregation of Aβ. Then, the degree of aggregation was determined by the thioflavin T assay as illustrated in Example 11.

MDA-MB-231 tumor cells = experiment: Effect of Aβ peptides on binding of VEGF to tumor cells that express neuropilin-1; type: cell-based; settings: data not shown
endothelial cells [3] = experiment: Effect of Aβ peptides on proliferation of endothelial cells induced by VEGF; type: cell-based; settings: 1 μM; data not shown
endothelial cells [4] = experiment: Effect of Aβ peptides on binding of VEGF with the receptors on endothelial cells; type: cell-based; settings: 1 μM; data not shown
Aβ [5] = molecular target: T1, Aβ; experiment: Inhibition of the aggregation of Aβ by Aβ-VEGF binding inhibitors; type: biochemical
Aβ-VEGF binding = molecular target: T4, Aβ-VEGF binding (Homo sapiens, UniProt P15692); experiment: Search for an inhibitor of Aβ-VEGF binding
T4 construct: Aβ (Aβ) is the major component of senile plaques and is derived from the amyloid precursor protein by proteolytic cleavage
T4 sequence (P15692 27-191 isoform P15692-4 limits assumed): T2 sequence (P15692 27-191 isoform P15692-4 limits assumed)

PC12 cells [6] = experiment: Ethidium fluorescence assay, cytotoxicity of Aβ; type: cell-based; settings: 5 μM Aβ1-42 incubated with VEGF or GST-HBD at 37° C. for 24 hours; PC12 cells 24 hours
Protocol: The mixture was added to PC12 cells (2×10^4, cells/well, kindly provided by Dr. Pann-Ghill Suh), and then left for reaction at 37° C. for 24 hours. Then, equal volume of 4 μM ethidium homodimer-1 was added to the resulted mixture, and reacted for 30 minutes. Thereafter, the fluorescence of the mixture was measured at Ex=530 nm and Em=645 nm, and then, compared with that of control of non-treated PC12 cells, to determine the cytotoxicity of Aβ.

PC12 cells [7] = experiment: MTT assay, cytotoxicity of Aβ; type: cell-based; design: dose or concentration left out as unconfirmed; settings: Aβ1-42 incubated with VEGF165 or GST-HBD at 37° C. for 24 hours; PC12 cells 24 hours
Protocol: The mixture was added to PC12 cells (2×10^4, cells/well, kindly provided by Dr. Pann-Ghill Suh), and then left for reaction at 37° C. for 24 hours. Then, 1/10 volume of 5 mg/ml MTT solution was added to the resulted mixture, and reacted for 2 hours. The obtained cells were lysed by 25% dimethylformamide/10% SDS. Thereafter, the absorbance of the lysate was measured at 570 nm, and then, compared with that of control of non-treated PC12 cells, to determine the reduction of MTT, and thereby determining the viability of the cells.

PC12 cells [8] = experiment: DCF fluorescence, generation of reactive oxygen species by Aβ; type: cell-based; settings: PC12 cells 3 hours
Protocol: 5 μM VEGF165 or 5 μM GST-HBD and 5 μM Aβ1-42 were mixed and incubated at 37° C. for 24 hours. The mixture was added to PC12 cells (6×10^4, cells/well, kindly provided by Dr. Pann-Ghill Suh), and then left for reaction at 37° C. for 3 hours. Then, 100 μM of DCF solution was added to the resulted mixture, reacted for 30 minutes, and then washed with PBS (phosphate-buffered saline). The obtained cells were observed through a fluorescent microscope, and DCF fluorescence was measured, to calculate the level of generation of the reactive oxygen species.

[9] = molecular target: T5, VEGF/Aβ interaction (GST-heparin-binding domain, biotinylated Aβ1-42) (Homo sapiens, UniProt P15692); experiment: Heparin inhibition of biotinylated Aβ1-42 binding to immobilized GST-heparin-binding domain; settings: GST-heparin-binding domain 100 nM immobilized; biotinylated Aβ1-42 50 nM
T5 construct: made in house
T5 sequence (P15692 137-191 isoform P15692-4): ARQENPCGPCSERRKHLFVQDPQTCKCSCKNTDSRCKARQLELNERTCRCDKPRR
Protocol: After removing unbound biotinylated Aβ, the bound peptide was determined with steptavidin conjugated with horse radish peroxidase.

[10] = molecular target: T6, VEGF/Aβ interaction (VEGF165, biotinylated Aβ) (Homo sapiens, UniProt P15692); experiment: Inhibition of biotinylated Aβ binding to coated VEGF165; settings: VEGF165 50 ng/well; biotinylated Aβ 100 ng/ml; increasing concentration of test compound
T6 sequence (P15692 27-191 isoform P15692-4 limits assumed): T2 sequence (P15692 27-191 isoform P15692-4 limits assumed)
Protocol: Biotinylated Aβ (100 ng/ml) was added to each well in the presence of increasing concentration of test compound. After 2 hours, each well was rinsed several times with 0.05% Tween in PBS. The bound biotinylated Aβ was determined with steptavidin conjugated with horse radish peroxidase.

immobilized VEGF165 = molecular target: T7, immobilized VEGF165 (Homo sapiens, UniProt P15692); experiment: Determination of VEGF binding region in Aβ, competition by Aβ fragments; settings: Aβ1-42 50 nM; 30 μM or 50 μM Aβ fragment
T7 sequence (P15692 27-191 isoform P15692-4): T2 sequence (P15692 27-191 isoform P15692-4 limits assumed)
Protocol: After removing unbound Aβ, the bound Aβ was determined by binding of rabbit anti-Aβ antibody followed by anti-rabbit antibody conjugated with horse radish peroxidase. […] The bound biotinylated Aβ was determined with streptavidin conjugated with horse radish peroxidase.

Aβ [11] = molecular target: T1, Aβ; experiment: Binding of growth factors to Aβ; settings: among NGF, bFGF, PDGF, VEGF and midkine

For “GST-CHBD: C-terminal half (amino acid 29-55) of heparin-binding domain fused to GST (CKNTDSRCKARQLELNERTCRCDKPRR; cysteine pairing not given here; also: fused to GST)”, which “binding of Aβ to immobilized GST-fusion protein” value (Aβ [1]) is on record?
The value was “Aβ binds to C-terminal sub-domain of heparin-binding domain”.

Which “affection on the VEGF-VEGF receptor binding” value (VEGF receptor, KDR-Fc) does the source give for `Nc1nc(N)c2nc(-c3ccccc3)c(N)nc2n1` [triamterene] here?
The value was “no affection on the VEGF-VEGF receptor binding regardless of the concentration”.

And the “inhibition of the Aβ-VEGF binding” value [2]?
Its value is “concentration-dependently inhibits the binding between Aβ and VEGF”.

What about the “affection on aggregation of Aβ (thioflavin T)” value (Aβ1-42; 50 μM Aβ, 37° C., triamterene 0, 4, 20 or 100 μM) of the same molecule?
The value was “no affection on aggregation of Aβ regardless of the concentration”.

Which results are given for “Aβ1-40: β-amyloid peptide residues 1-40 (BACHEM)”?
effect on the binding of VEGF to MDA-MB-231 tumor cells (MDA-MB-231 tumor cells): Neither did Aβ1-40 nor Aβ1-42 affect; effect on the proliferation of endothelial cells induced by VEGF (endothelial cells [3]): Neither Aβ1-40 nor Aβ1-42, even at a high concentration (1 μM), affected; effect on the binding of VEGF with the receptors on endothelial cells (endothelial cells [4]): Neither Aβ1-40 nor Aβ1-42, even at a high concentration (1 μM), affected

How did the “effect on the binding of VEGF to MDA-MB-231 tumor cells” value (MDA-MB-231 tumor cells) turn out when “Aβ1-42: β-amyloid peptide 1-42, SEQ ID NO:4” was run?
The value was “Neither did Aβ1-40 nor Aβ1-42 affect”.

What about the “effect on the proliferation of endothelial cells induced by VEGF” value (endothelial cells [3]) of the same molecule?
The value was “Neither Aβ1-40 nor Aβ1-42, even at a high concentration (1 μM), affected”.

What about the “effect on the binding of VEGF with the receptors on endothelial cells” value (endothelial cells [4]) of the same molecule?
Its value is “Neither Aβ1-40 nor Aβ1-42, even at a high concentration (1 μM), affected”.

Which results are given for fucoidan?
activity to inhibit the aggregation of Aβ by itself (Aβ [5]): additional activity to inhibit the aggregation of Aβ by itself; inhibitor of Aβ-VEGF binding (search) (Aβ-VEGF binding): searched as an inhibitor of Aβ-VEGF binding

How did the “inhibition of the cytotoxicity of Aβ (ethidium homodimer-1 fluorescence)” value (PC12 cells [6]) turn out when “HBD: full heparin-binding domain of VEGF165 (SEQ ID NO:2) fused to GST (ARQENPCGPCSERRKHLFVQDPQTCKCSCKNTDSRCKARQLELNERTCRCDKPRR; cysteine pairing not given here; also: fused to GST)” was run?
The value was “inhibit the cytotoxicity of Aβ depending on the concentration”.

And the “inhibition of aggregation of Aβ (thioflavin T)” value (Aβ1-42; 50 μM Aβ1-42, 37° C., VEGF or GST-HBD at various concentrations)?
Its value is “inhibit aggregation of Aβ depending on the concentration”.

What about the “inhibition of the cytotoxicity of Aβ (MTT reduction)” value (PC12 cells [7]) of the same molecule?
Its value is “exhibits the activity to inhibit the cytotoxicity of Aβ”.

And the “generation of the reactive oxygen species, treatment alone” value (PC12 cells [8]; 5 μM VEGF165 or 5 μM GST-HBD alone)?
The value was “no effect on the generation of the reactive oxygen species”.

What about the “generation of the reactive oxygen species by Aβ, treatment together with Aβ” value (PC12 cells [8]; 5 μM VEGF165 or 5 μM GST-HBD with 5 μM Aβ1-42) of the same molecule?
The value was “inhibitory effect on the generation of the reactive oxygen species by Aβ”.

heparin was tested. Which “IC50, inhibition of binding of biotinylated Aβ1-42 to heparin-binding domain” value [9] did it give?
The value was about 0.025 µg/mL.

Which “activity to inhibit the aggregation of Aβ by itself” value (Aβ [5]) does the source give for `O=C(O[C@@H]1Cc2c(O)cc(O)cc2O[C@@H]1c1cc(O)c(O)c(O)c1)c1cc(O)c(O)c(O)c1` [EGCG, epigallocatechin gallate, reference compound] here?
Its value is “additional activity to inhibit the aggregation of Aβ by itself”.

What about the “inhibition of binding of Aβ to VEGF” value [10] of the same molecule?
The value was “inhibition”.

Which “inhibition of binding of Aβ to VEGF” value [10] does the source give for tannic acid here?
Its value is “inhibition”.

Which “competition with Aβ for binding to immobilized VEGF165” value (immobilized VEGF165) does the source give for “Aβ25-35: partial fragment of Aβ, residues 25-35 of SEQ ID NO:4 (GSNRGAIIGLM; listed as Homo sapiens)” here?
The value was “competes with Aβ for its binding to immobilized VEGF165”.

bFGF: basic fibroblast growth factor was tested. Which “binding of growth factor to Aβ” value (Aβ [11]) did it give?
The value was “only VEGF and midkine bound to A”.

Which “binding of growth factor to Aβ” value (Aβ [11]) does the source give for NGF: nerve growth factor here?
The value was “only VEGF and midkine bound to A”.

PDGF was tested. Which “binding of growth factor to Aβ” value (Aβ [11]) did it give?
The value was “only VEGF and midkine bound to A”.

B1: midkine: heparin-binding, neurotrophic growth factor whose expression occurs mainly in fetus (protein)
chain: VAKKKDKVKKGGPGSECAEWAWGPCTPSSKDCGVGFREGTCGAQTQRIRCRVPCNWKKEFGADCKYKFENWGACDGGTGTKVRQGTLKKARYNAQCQETIRVTKPCTPKTKAKAKAKKGKGKD
How did the “binding of growth factor to Aβ” value (Aβ [11]) turn out when B1 was run?
Its value is “bound to A”.
